Measured values from patent US8642630B2, “Endogeneous repair factor production accelerators” (Ono Pharmaceutical Co., Ltd., priority 2002, dated 2014).

Experiments:
[1] = tested on: normal human umbilical cord vein vascular endothelial cells and normal human skin fibroblasts; experiment: Measurement of angiogenesis acceleration action (in vitro), hollow organ formation, Example 9; type: cell-based; settings: 10 days of culturing, FIG. 5
Protocol: An angiogenesis kit (manufactured by Kurabo; constituted from normal human umbilical cord vein vascular endothelial cells and normal human skin fibroblasts) was cultured for 3 hours, and then the culture medium (the medium for angiogenesis use attached to the angiogenesis kit was used as the culture medium and cultured at 37° C. under a moist environment of 5% carbon dioxide-95% air, and a carbon dioxide incubator BNA-121D was used as the incubator) was changed and an agent to be tested was added to each well (0.5 ml/well). The medium exchange was carried out also on the 3rd, 6th and 8th days after commencement of the culturing and the fresh agent to be tested was added. The kind and concentration of the agent to be tested were untreated; DMSO: 0.1%; α-CD: 0.0118, 0.118 and 1.18 mg/ml; PGE2-αCD: 1, 10 and 100 nmol/l; Compound 3 (EP2 agonist), Compound 4 (EP4 agonist), EP1 agonist and EP3 agonist: 1, 10 and 100 nmol/l, VEGF: 0.1, 1 and 10 ng/ml; and HGF: 0.1, 1 and 10 ng/ml, and culturing was carried out by using 3 wells for each concentration. Fixation was carried out 10 days after the commencement of culturing, and staining of hollow organ with anti-CD31 antibody was carried out by using a hollow organ staining kit (manufactured by Kurabo). As the evaluation, Chalkley Grid (a grid lens, Kurabo) was mounted on the eyepiece of a microscope, and the hollow organ formation was evaluated by counting intersections of the randomly arrange points of Chalkley Grid with the formed hollow organ (by referring to the evaluation method of J. Pathol., 177, 275-283 (1995)). The counting was carried out at 12 positions per well, and the total was calculated.
In this connection, Compound 3 as an EP2 agonist ((5Z,9β,11α,13E)-17,17-propano-11,16-dihydroxy-9-chloro-20-norprost-5,13-dienoic acid) was dissolved in dimethyl sulfoxide (DMSO) to prepare 10^−4, 10^−5 and 10^−6 mol/l solutions which were then used by diluting 1/1000 time with the culture medium.
Compound 4 as an EP4 agonist ((11α,13E,15α)-9-oxo-11,15-dihydroxy-16-(3-methoxymethylphenyl)-17,18,19,20-tetranor-5-thiaprost-13-enoic acid) was dissolved in dimethyl sulfoxide (DMSO) to prepare 10^−4, 10^−5 and 10^−6 mol/l solutions which were then used by diluting 1/1000 time with the culture medium.
The EP1 agonist ((13E)-(11α,15S,17S)-2,5-ethano-6,9-dioxo-11,15-dihydroxy-17,20-dimethylprost-13-enoic acid; the compound described in Example 1 in the specification of JP-A-11-322709) was dissolved in dimethyl sulfoxide (DMSO) to prepare 10^−4, 10^−5 and 10^−6 mol/l solutions which were then used by diluting 1/1000 time with the culture medium.
The EP3 agonist (11α,15α-dimethoxy-9-oxoprost-5Z,13E-dienoic acid; the compound described in Example 1 in the specification of WO98/34916) was dissolved in dimethyl sulfoxide (DMSO) to prepare 10^−4, 10^−5 and 10^−6 mol/l solutions which were then used by diluting 1/1000 time with the culture medium.
The PGE2-αCD was dissolved in distilled water for injection to prepare 10^−4, 10^−5 and 10^−6 mol/l solutions which were then used by diluting 1/1000 time with the culture medium.
As the VEGF (vascular endothelial growth factor), the 2 μg/ml solution of VEGF contained in the angiogenesis control reagent kit of Kurabo was diluted with the culture medium and used.
As the HGF (human hepatocyte growth factor), the 5 μg/ml solution of HGF purchased from R & D System-Funakoshi was diluted with the culture medium and used.
The counts of hollow organ formation in the untreated wells were compared with those of the wells treated with respective concentrations of test samples by Dunnett's test (two-sided test). The significance level was set to 5%.
(§1) In this connection, the data were shown by average value of 3 wells and standard deviation.

VEGF = experiment: Endogenous repair factor releasing action (in vitro), VEGF by ELISA, Example 10; type: cell-based, human; settings: 100 nmol/l; for VEGF concentration in culture supernatant: after 72 hours of culturing, average of 3 wells ± SD; for VEGF concentration in supernatants, in words: vs untreated, Dunnett's test
Protocol: (§2) An angiogenesis kit (manufactured by Kurabo; constituted from normal human umbilical cord vein vascular endothelial cells and normal human skin fibroblasts) was cultured for 3 hours, and then the culture medium (the medium for angiogenesis use attached to the angiogenesis kit was used as the culture medium and cultured at 37° C. under a moist environment of 5% carbon dioxide-95% air, and a carbon dioxide incubator BNA-121D was used as the incubator) was changed and an agent to be tested was added to each well (0.5 ml/well). HGF and VEGF concentrations in the culture supernatants were measured 3 days after the commencement of the culturing. Kinds and concentrations of the agent to be tested were untreated; DMSO: 0.1%; PGE1-αCD: 100 nmol/l; PGE2-αCD: 100 nmol/l; and Compound 3 (EP2 agonist) and Compound 4 (EP4 agonist): 100 nmol/l, and the culturing was carried out by using 3 wells for each concentration. The HGF and VEGF concentrations were measured by using an ELISA kit (R % D system-Funakoshi).
(§3) In this connection, Compound 3 as an EP2 agonist ((5Z,9β,11α,13E)-17,17-propano-11,16-dihydroxy-9-chloro-20-norprost-5,13-dienoic acid) was dissolved in dimethyl sulfoxide (DMSO) to prepare a 10^−4 mol/l solution which was then used by diluting 1/1000 time with the culture medium.
(§4) Compound 4 as an EP4 agonist ((11α,13E,15α)-9-oxo-11,15-dihydroxy-16-(3-methoxymethylphenyl)-17,18,19,20-tetranor-5-thiaprost-13-enoic acid) was dissolved in dimethyl sulfoxide (DMSO) to prepare a […] solution which was then used by diluting 1/1000 time with the culture medium.
(§5) The PGE1-αCD and PGE2-αCD were dissolved in distilled water for injection to prepare 10^−4 mol/l solutions which were then used by diluting 1/1000 time with the culture medium.
(§6) HGF and VEGF concentrations in the supernatants of the solvent control group were compared with those of the agent-treated groups by Dunnett's test (two-sided test). The significance level was set to 5%.
as §1

HGF = experiment: Endogenous repair factor releasing action (in vitro), HGF by ELISA, Example 10; type: cell-based, human; settings: 100 nmol/l; for HGF concentration in culture supernatant: after 72 hours of culturing, average of 3 wells ± SD; for HGF concentration in supernatants, in words: vs untreated, Dunnett's test
Protocol: as §2, §3, §4, §5, §6, §1

[2] = tested on: mouse sponge transplantation model; experiment: Angiogenesis test using mouse sponge transplantation model, Example 8; type: in vivo; settings: 14 days of repeated administration
Protocol: Under anesthesia, dorsal part of a mouse was incised and a discus urethane sponge (about 5 mm in thickness and 13 mm in diameter) was embedded therein. Administration of the agent was carried out by topically administering it directly into the sponge once a day for a total of 14 times starting on the day of the sponge transplantation model preparation, or on the operation-completed day and 7th day thereafter. On the 15th day after the sponge transplantation, the sponge containing granulation tissue was extracted and observed with the naked eye, and then its wet mass was measured. In addition, this was mixed with distilled water of 4 times larger amount than the wet mass, homogenized and centrifuged, and then the supernatant was subjected to the measurement of the hemoglobin content using Hemoglobin 13-Test Wako (manufactured by Wako Pure Chemical Industries).
• The polylactic acid-glycolic acid copolymer used in Preparation Example 2 was suspended in 0.2 w/v % Tween 80 solution (0.05 ml). In this connection, amount of the polylactic acid-glycolic acid copolymer is identical to the amount contained in Compound 1 MS (200 μg). Compound 1 (20 μg) Group: • Compound 1 (20 μg) was suspended in 0.2 w/v % Tween 80 solution (0.05 ml). Compound 1 (40 μg) Group:
Compound 1 (40 μg) was suspended in 0.2 w/v % Tween 80 solution (0.05 ml).
• Compound 1 (200 μg) was suspended in 0.2 w/v % Tween 80 solution (0.05 ml). Compound 1 MS (200 μg) group: • The microsphere preparation produced in Preparation Example 2 containing […] of Compound 1 was suspended in 0.2 w/v % Tween 80 solution (0.05 ml). Compound 1 MS (400 μg) Group: • The microsphere preparation produced in Preparation Example 2 containing 400 μg of Compound 1 was suspended in 0.2 w/v % Tween 80 solution (0.05 ml). Compound 3 (20 μg) Group: • Compound 3 (20 μg) was suspended in 0.2 w/v % Tween 80 solution (0.05 ml).

[3] = tested on: normal human umbilical cord vein vascular endothelial cells and normal human skin fibroblasts; experiment: Measurement of angiogenesis acceleration action (in vitro), hollow organ formation, Example 1; type: cell-based; settings: 10 ng/ml; 10 days of culturing; FIG. 1
Protocol: An angiogenesis kit (manufactured by Kurabo; constituted from normal human umbilical cord vein vascular endothelial cells and normal human skin fibroblasts) was cultured for 3 hours, and then the culture medium (the medium for angiogenesis use attached to the angiogenesis kit was used as the culture medium and cultured at 37° C. under a moist environment of 5% carbon dioxide-95% air, and a carbon dioxide incubator BNA-121D was used as the incubator) was changed and an agent to be tested was added to each well (0.5 ml/well). The medium exchange was carried out also on the 3rd, 6th and 8th days after commencement of the culturing and the fresh agent to be tested was added. The kind and concentration of the agent to be tested were untreated, solvent (DMSO) 0.1%, Compound 1 10^−9, 10^−8 and 10^−7 mol/l, VEGF-A 0.1, 1 and 10 ng/ml and HGF 0.1, 1 and 10 ng/ml, and the culturing was carried out by using 3 wells for each concentration. Fixation was carried out 10 days after the commencement of culturing, and staining of hollow organ with anti-CD31 antibody was carried out by using a hollow organ staining kit (manufactured by Kurabo). As the evaluation, Chalkley Grid (a grid lens, manufactured by Kurabo) was mounted on the eyepiece of a microscope, and the hollow organ formation was evaluated by counting intersections of the randomly arrange points of Chalkley Grid with the formed hollow organ (by referring to the evaluation method of J. Pathol., 177, 275-283 (1995)). The counting was carried out at 12 positions per well, and the total was calculated.
As the agent to be tested, Compound 1 ((E)-[5-[2-[1-phenyl-1-(3-pyridyl)methylideneaminoxy]ethyl]-7,8-dihydronaphthalen-1-yloxy]acetic acid) was dissolved in dimethyl sulfoxide (DMSO) to prepare 10^−4, 10^−5 and 10^−6 mol/l solutions which were then used by diluting 1/1000 time with the culture medium.
As the VEGF-A (vascular endothelial growth factor-A), the 2 μg/ml solution of VEGF contained in the angiogenesis control reagent kit of Kurabo was diluted with the culture medium and used. […]

[4] = 10 nmol/l and 100 nmol/l, vs untreated wells, Dunnett's test
[5] = 20 μg into the sponge once a day, 15th day

Row | Compound | hollow organ formation (Chalkley Grid count), in words [1, 4] | VEGF concentration in culture supernatant (VEGF) [pg/mL] | VEGF concentration in supernatants, in words (VEGF) | HGF concentration in culture supernatant (HGF) [pg/mL] | HGF concentration in supernatants, in words (HGF) | hollow organ formation (Chalkley Grid count), in words ([1]; 1, 10 and 100 nmol/l) | other results
1 | OC[C@H]1O[C@@H]2O[C@H]3[C@H](O)[C@@H](O)[C@@H](O[C@H]4[C@H](O)[C@@H](O)[C@@H](O[C@H]5[C@H](O)[C@@H](O)[C@@H](O[C@H]6[C@H](O)[C@@H](O)[C@@H](O[C@H]7[C@H](O)[C@@H](O)[C@@H](O[C@H]1[C@H](O)[C@H]2O)O[C@@H]7CO)O[C@@H]6CO)O[C@@H]5CO)O[C@@H]4CO)O[C@@H]3CO [α-CD] | – | – | – | – | – | – | hollow organ formation (Chalkley Grid count), in words ([1]; 0.0118, 0.118 and 1.18 mg/ml): did not exert influence upon hollow organ formation
2 | COCc1cccc(C[C@H](O)/C=C/[C@H]2[C@H](O)CC(=O)[C@@H]2CCSCCCC(=O)O)c1 [Compound 4, (11α,13E,15α)-9-oxo-11,15-dihydroxy-16-(3-methoxymethylphenyl)-17,18,19,20-tetranor-5-thiaprost-13-enoic acid] | significantly accelerated hollow organ formation | 2936 ± 69 | significantly increased HGF and VEGF concentrations | 379 ± 12 | significantly increased HGF and VEGF concentrations | – | –
3 | CCC1(C(O)C/C=C/[C@@H]2[C@@H](C/C=C\CCCC(=O)O)[C@H](Cl)C[C@H]2O)CCC1 (stereo partly drawn) [Compound 3, (5Z,9β,11α,13E)-17,17-propano-11,16-dihydroxy-9-chloro-20-norprost-5,13-dienoic acid] | significantly accelerated hollow organ formation | 2762 ± 51 | significantly increased HGF and VEGF concentrations | 1865 ± 48 | significantly increased HGF and VEGF concentrations | – | Hemoglobin content [2, 5]: 4.588 ± 0.488 mg/g wet tissue; Sponge wet weight [2, 5]: 0.5193 ± 0.0792 g; formation of granulation in the sponge, in words ([2]; 20 μg): formation of granulation was found; hemoglobin concentration in the granulation tissue, in words ([2]; 20 μg, vs polymer group): significant increase in the concentration of hemoglobin
4 | CCCC[C@H](C)C[C@H](O)/C=C/[C@H]1[C@H](O)CC(=O)[C@@H]1CC(=O)C1CCC(C(=O)O)CC1 (stereo partly drawn) [EP1 agonist, (13E)-(11α,15S,17S)-2,5-ethano-6,9-dioxo-11,15-dihydroxy-17,20-dimethylprost-13-enoic acid, reference compound] | – | – | – | – | – | did not exert influence upon hollow organ formation | –
5 | CCCCC[C@@H](/C=C/[C@H]1[C@H](OC)CC(=O)[C@@H]1C/C=C\CCCC(=O)O)OC [EP3 agonist, 11α,15α-dimethoxy-9-oxoprost-5Z,13E-dienoic acid, reference compound] | – | – | – | – | – | did not exert influence upon hollow organ formation | –
6 | HGF: human hepatocyte growth factor purchased from R & D System-Funakoshi; positive control agent | – | – | – | – | – | – | hollow organ formation (Chalkley Grid count), in words ([1]; 10 ng/ml): accelerated hollow organ formation; hollow organ formation (Chalkley Grid count), in words [3]: accelerated hollow organ formation
